Test results taken from PubChem BioAssay AID179 (DTP/NCI, 2004).
“And” between values parts separate entries of the source, which are not always exact repeats. Equal values may be shown once. The source made the active and inactive calls.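 How the source made its calls: active means compounds giving half or more protection of infected cells from virus-caused growth loss, again on retest; inactive means the rest.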 Where a SMILES comes first, the peptide text is derived from it. The star is where a group is joined. Cbz = O=C(OCc1ccccc1)*; Boc = CC(C)(C)OC(=O)*; OSu = O=C1CCC(=O)N1O*; Bn = c1ccc(C*)cc1

Tested on: CEM cells HIV-1 protection, formazan growth assay
Assay: NCI AIDS Antiviral Assay
Conditions: for IC50: measured here: growth of uninfected CEM cells
Procedure, shortened: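 Category rules: moderately active means at least 50% protection on retest, and confirmed active means 100% protection reproducibly. The underlying data came from a formazan growth assay in HIV-1-infected CEM cells.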

SMILES | EC50 [µM] | IC50 | outcome
CN1CC2=C(OC(N)=C(C#N)C2c2cccs2)/C(=C/c2cccs2)C1 (centres undefined) | > 200 | 8.13 µM | –
Cc1ccc2c(c1)nc1c3ccccc3[nH]n21 | > 5.89 | > 5.89 µM | –
CC(C)(C)c1cc(C(=O)/C=C/c2ccccc2)cc(C(C)(C)C)c1O | > 21.4 | > 21.4 µM | –
Nc1ncnc2c1ncn2C1C(O)C(CO)C1CO (centres undefined) | > 186 | > 186 µM | –
CC1(C)OC(=O)C(C#N)=C1C[n+]1ccccc1 | > 263 | > 263 µM | –
Cc1cc(=O)oc2cc(NCS(=O)(=O)O)ccc12 | > 617 | > 617 µM | –
O=C(/C=C\c1ccccc1-c1ccccc1)c1ccccc1 | > 200 | > 200 µM | –
C[C@H](CCC(=O)O)[C@H]1CC[C@H]2[C@@H]3[C@@H](O)C[C@@H]4C[C@H](O)CC[C@]4(C)[C@H]3C[C@H](O)[C@]12C | > 200 | > 200 µM | –
NC(=O)C(=O)n1ncc(Cl)c(Cl)c1=O | > 30.9 | > 30.9 µM | –
CCOC(=O)C(Cc1ccccc1)NC(=O)c1[nH]cnc1/N=N/N(C)C (centres undefined) | > 692 | 355 µM | –
COC(=O)/C([Se]c1c(C)cc(C)cc1C)=C(\[Se]c1c(C)cc(C)cc1C)C(=O)OC | – | – | inactive
COC(=O)/C=C/c1cc(OC)c(OC)c(OC)c1 | > 251 | 170 µM | –
CCOC(=O)CC(=O)C(=O)NNC1=NCCCN1 | > 200 | > 200 µM | –
CCC[CH2][Sn]1([CH2]CCC)[O]N=C(c2ccccc2)C(c2ccccc2)[O]1 (centres undefined) | > 19.5 | 2.45 µM | –
CCCC(=N\N=C(N)N)/C(CCC)=N/N=C(N)N | > 186 | > 186 µM | –
CC1=C(C)C2(C#N)C(=O)N3C(=NC(c4ccccc4)NC3c3ccccc3)C2(C#N)C(c2ccccc2)N1 (centres undefined) | > 100 | > 100 µM | –
NC(=O)c1cn(C2OC(CO)C(O)C2O)c(=O)[nH]c1=O (centres undefined) | > 871 | > 871 µM | –
O=[N+]([O-])c1ccc(-c2ccc(/C=N/n3c(-c4ccc(Cl)cc4)n[nH]c3=S)o2)cc1 | > 1.23 | > 1.23 µM | –
CCOC(=O)C1CSCCSC1 | > 174 | > 174 µM | –
Cc1cn(C2CC(OC(c3ccccc3)(c3ccccc3)c3ccccc3)C(CO)O2)c(=O)[nH]c1=O (centres undefined) | > 200 | 10.5 µM | –
Cc1cc(S(=O)(=O)O)ccc1N=Nc1ccc(N=Nc2cc(S(=O)(=O)O)c3ccccc3c2O)c(C)c1 | > 100 | > 100 µM | –
Oc1ccc(-c2nc(-c3cccnc3)c(-c3ccc(F)cc3)[nH]2)cc1 | > 200 | 30.9 µM | –
Cc1cc(=O)n2c(n1)Nc1ccc(Cl)cc1C2 | > 52.5 | > 52.5 µM | –

SMILES | EC50 [µM] | IC50 | outcome
C/C(O)=C/c1nc2ccccc2n2nnnc12 | > 110 | > 110 µM | –
COC(C(=O)[O][Ge]([CH3])([CH3])[CH3])c1ccccc1 (centres undefined) | > 251 | > 251 µM | –
O=C(/C=C/c1ccccc1)c1cc2c(cc1O)OCO2 | > 70.8 | 5.25 µM | –
CCOC(=O)c1sc(SC)nc1NC(=O)c1ccc(OC)cc1 | > 200 | > 200 µM | –
COc1cc2c(cc1OC)C1c3ccccc3CCN1CCC2 (centres undefined) | > 200 | > 200 µM | –
CCOC(F)(F)/C=C/c1ccccc1 | – | – | inactive
CN(C)Cc1cc(C(=O)/C=C/c2ccc(F)cc2)cc(CN(C)C)c1O | > 200 | 19.1 µM | –
S=C(Nc1ccc2c3c(cccc13)CC2)Nc1ccc2c3c(cccc13)CC2 | > 200 | 42.7 µM | –
CC1(C)C2C3CCC2C2C[S+]1CC23 | > 162 | 107 µM | –
CC(C)(C)OC(=O)NC(Cc1ccc(OCc2ccccc2)cc1)C(=O)NC(CCCCNC(=O)OCc1ccccc1)C(=O)ON1C(=O)CCC1=O (centres undefined) (Boc-Tyr(Bn)-Lys(Cbz)-OSu; configuration not given here) | > 200 | 36.3 µM | –
Cc1cc(C)nc(/C(=N\NC(N)=O)C(=O)Nc2nc3ccc(C)cc3s2)c1 | > 661 | > 661 µM | –
O=C(/C=C/c1ccccc1)Oc1cccc(Br)c1 | > 200 | 17.8 µM | –
CCCCCCCCCCCCNC(=S)OCCCC | – | – | inactive
CC1=CC(=O)N(n2c(Cc3ccc(Cl)cc3)n[nH]c2=O)C1=O | > 200 | > 200 µM | –
CSC1=NNC(SC)=NN1 | > 200 | 0.708 µM | –
Cc1cc(N(CCC#N)CCC#N)ccc1/C=C1N=C(/C=C\c2ccccc2)N(c2ccc(Cl)cc2)C\1=O | – | – | inactive
C[C@H](OC(=O)/C=C/c1ccc(O)c(O)c1)[C@H](C)OC(=O)/C=C/c1ccc(O)c(O)c1 | > 200 | 3.47 µM | –
CC(=O)Nc1cc(=O)[nH]c2c1CCC2 | – | – | inactive
COc1cc(OC)cc(OCc2ccc3nc(-c4ccccc4)c(Cl)nc3c2)c1 | > 100 | > 100 µM | –
CCOC(=O)c1c(-c2ccccc2)oc(=O)c(Cc2cccc3cccnc23)c1-c1ccccc1 | > 200 | > 200 µM | –
C=C1[C@@H](OC(C)=O)[C@H]2[C@@H](OC(C)=O)[C@@](C)(OC(C)=O)C[C@]2(OC(C)=O)C(=O)[C@@H](C)/C=C/C(C)(C)C(=O)C[C@H]1OC(C)=O | > 200 | 72.4 µM | –
O=C1NC(CO)(CO)CO1 | > 200 | > 200 µM | –
CNc1ccccc1S(=O)(=O)c1ccccc1Cl | > 63.1 | 40.7 µM | –

SMILES | EC50 [µM] | IC50 | outcome
O=C1Nc2ccccc2Nc2nc3cccccc-3c21 | > 100 | > 100 µM | –
O=C(O)c1cc2oc(-c3ccccc3)cc2[nH]1 | > 219 | 155 µM | –
CC1=Nc2c(ccc3c2C(=O)c2ccccc2C3=O)NC(c2ccncc2)C1 (centres undefined) | > 7.41 | > 7.41 µM | –
C[C@@H]1C(=O)c2c(O)cc(O)cc2O[C@@H]1C | > 200 | > 200 µM | –
CN1CCN(Cc2nc3cccc4c3c([n+]2[O-])-c2ccccc2-4)CC1 | – | – | inactive
CN(C)c1ccc(S(=O)c2ccc(N(C)C)cc2)cc1 | > 34.7 | > 34.7 µM | –
CCOC(=O)c1cn(CC)c2ccc3ccsc3c2c1=O | – | – | inactive
CCCCCOC(=S)S | > 200 | > 200 µM | –
O=C1N=C2SCCCN2C1(c1ccccc1)c1ccccc1 | > 200 | > 200 µM | –
COC(=O)C1=NC(=N)N=C(C(=O)OC)C12C(=O)Cc1ccccc12 (centres undefined) | 339 | 398 µM | –
O=C1C/C(=C\O)C(=O)c2ccccc2N1 | 0.186 | > 200 µM | –
Nc1cc(Cl)cc(Cl)c1O | > 162 | 120 µM | –
CC(O)CN1C(=O)c2cccc3cc([N+](=O)[O-])cc(c23)C1=O (centres undefined) | > 200 | 12 µM | –
CCCCCCc1cc(C(=O)Nc2ccc(Cl)cc2)nc(=S)[nH]1 | > 708 | 479 µM | –
Cn1nc2ccc(Nc3cc(=O)[nH]c4ccc5nn(C)nc5c34)cc2n1 | > 200 | 95.5 µM | –
CCCC/C=C\CCCCCCCCCC1=C(O)C(=O)C=C(OC)C1=O | > 55 | 9.33 µM | –
CC(C)CCc1n[nH]c(=O)n1/N=C\c1ccccc1 | > 200 | 66.1 µM | –
CC(=O)c1c2c(cc3c1CC1(Cc4cc5c(cc4C1)C(=O)CCC5)C3)CCCC2 (centres undefined) | > 200 | 3.63 µM | –
COc1ccc(OC)c(C(Cc2ccnc3ccccc23)Cc2ccnc3ccccc23)c1 | > 200 | 26.3 µM | –
O=C1CC2O[C@H](c3ccccc3)OC2CO1 (some centres undefined) | > 200 | 93.3 µM | –
Nc1nc[n+](Cc2ccccc2)c2ncn(Cc3ccccc3)c12 | > 631 | 95.5 µM | –
O=S1(=O)CCC2=CC(C(F)(F)F)=CC(C(F)(F)F)=CN21 | > 81.3 | 0.38 µM | –
COc1ccc(C(C)NNC(=O)c2ccncc2)c(OC)c1 (centres undefined) | > 200 | 29.5 µM | –

SMILES | EC50 [µM] | IC50 | outcome
C=C(C)COC(=O)COCC(=O)OCC(=C)C | > 200 | > 200 µM | –
CC(C)(C)C(=O)OCC(COC(=O)C(C)(C)C)[N+](=O)[O-] | – | – | inactive
COc1ccc(C2C(C(C)=O)=C(C)NC(C)=C2C(C)=O)cc1 | > 200 | > 200 µM | –
O=C(/C=C/c1ccccc1)Oc1cccc2cccnc12 | > 200 | 3.63 µM | –
CCOC(=O)/C(C#N)=C/c1cccc(OC)c1 | > 155 | > 155 µM | –
Cc1ccc2c(c1)C(=O)N1CSCC1C(=O)S2 (centres undefined) | > 251 | 32.4 µM | –
CN1CCc2ccccc2/C(=C(/O)c2ccccc2)C1=O | – | – | inactive
CC(=O)/C(=C/n1c(=S)[nH]c2ccc([N+](=O)[O-])cc21)C(=O)Nc1ccc([N+](=O)[O-])cc1 | > 200 | 33.1 µM | –
C=CCCC(=O)C(Cc1ccccc1OC)C(=O)OC (centres undefined) | > 129 | > 129 µM | –
c1cc2c(cc1[C@@H]1OC[C@@H]3[C@H]1CO[C@H]3c1ccc3c(c1)OCO3)OCO2 | > 200 | 79.4 µM | –
CC(O)C1OC(n2cnc3c(=O)[nH]c(N)nc32)C(O)C1O (centres undefined) | > 170 | > 170 µM | –
NC(CCCCNC(=O)CNC(=O)OCc1ccccc1)C(=O)NC(CCCCNC(=O)CNC(=O)OCc1ccccc1)C(=O)NC(CCCCNC(=O)CNC(=O)OCc1ccccc1)C(=O)NC(CCCCNC(=O)CNC(=O)OCc1ccccc1)C(=O)NC(CCCCNC(=O)CNC(=O)OCc1ccccc1)C(=O)NC(CCCCNC(=O)CNC(=O)OCc1ccccc1)C(=O)O (centres undefined) | > 100 | > 100 µM | –
Cn1c(=O)n(C2(C)C[Se]C2)c2ccccc21 | > 468 | 166 µM | –
CCOC(=O)C1=C(Nc2ccc(Cl)cc2Cl)OCC1=O | – | – | inactive
N#CC12C3C4C5C3C1n1c(=O)n(-c3ccccc3)c(=O)n1C5C42 (centres undefined) | > 200 | > 200 µM | –
S=C1N=C(Cl)/C(=C\c2ccco2)N1 | > 200 | > 200 µM | –
O=C(O)Cc1cccc2c1Oc1ccccc1S2 | > 5620 | 204 µM | –
COc1ccc(Cc2nc3ccccc3[nH]2)cc1OC | > 200 | 89.1 µM | –
O=c1c2ccccc2c(=O)n2n1CC=CC2 | – | – | inactive
CCOC(=O)/C(O)=C/c1cc(OC)cc(=O)o1 | – | – | inactive
CC(C)(N=NC(C)(C)C1=NCCN1)C1=NCCN1 | > 200 | 105 µM and 83.2 µM | –
Cc1c(-c2ccccc2)oc2c(C(=O)OCCN3CCCCC3)cccc2c1=O | – | – | inactive
